Measured values published in patent US20200345002A1, “COMPOSITIONS AND METHODS FOR INDUCING CROP CHANGES BY LEVERAGING THE EFFECTS OF AN APPLIED AGRICULTURAL CHEMICAL” (ADVANCED BIOLOGICAL MARKETING, INC., priority 2017, published 2020).

Test system: weedy target
Assay: Greenhouse Paraquat spray on weedy target
Format: in vivo
Settings: 24 hours post spray
Description: Turning to FIG. 8, recovery of replicates of plants using compositions of the present invention is shown. The control is in the upper left and the remaining plants are colonized with single Trichoderma strains, with 3 replicate plants per strain.

In the case of `C[n+]1ccc(-c2cc[n+](C)cc2)cc1.[Cl-].[Cl-]` [Paraquat, N,N′-dimethyl-4,4′-bipyridinium dichloride], the “killing effect of the Paraquat application” value is reported as “complete killing effect”.
